Results on 35 molecules are retold here after ChEMBL document CHEMBL3085661, “Fragment-based approach to the design of 5-chlorouracil-linked-pyrazolo[1,5-a][1,3,5]triazines as thymidine phosphorylase inhibitors” (Eur J Med Chem, 2013).

SMILES strings stand for the structures. Counter-ions that a name gives are not always drawn.

For one series, the target named is T1, Thymidine phosphorylase (Escherichia coli K-12, UniProt P07650). In words: Noncompetitive inhibition of GST-tagged Escherichia coli recombinant thymidine phosphorylase expressed in Escherichia coli using thymidine as substrate after 20 to 60 mins by HPLC analysis.
T1 sequence (P07650 whole entry): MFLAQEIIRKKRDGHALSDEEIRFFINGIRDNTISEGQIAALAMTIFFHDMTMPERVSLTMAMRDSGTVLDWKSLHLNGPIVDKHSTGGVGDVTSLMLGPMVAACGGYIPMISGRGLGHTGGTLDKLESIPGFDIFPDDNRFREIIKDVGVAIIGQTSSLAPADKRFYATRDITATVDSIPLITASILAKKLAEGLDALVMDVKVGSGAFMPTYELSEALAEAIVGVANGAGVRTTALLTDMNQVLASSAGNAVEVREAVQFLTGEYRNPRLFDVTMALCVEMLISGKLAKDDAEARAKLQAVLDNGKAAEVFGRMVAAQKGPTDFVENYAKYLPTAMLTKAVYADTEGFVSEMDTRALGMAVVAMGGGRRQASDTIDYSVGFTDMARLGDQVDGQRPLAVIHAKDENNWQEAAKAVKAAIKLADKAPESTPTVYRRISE
Settings: not given
In general, IC50 refers to the midpoint of a concentration-inhibition curve. As to `Oc1ncnc2c1ncn2[C@@H]1O[C@H](COC(c2ccccc2)(c2ccccc2)c2ccccc2)[C@@H](O)[C@H]1O`, the half-inhibitory concentration (IC50) came to 44 µM.

A further series deals with T1, Thymidine phosphorylase. In words: Inhibition of Escherichia coli recombinant thymidine phosphorylase using thymidine as substrate after 4 to 20 mins by UV spectrophotometry.
Settings: not given
On to `CC(C)(C)c1ccc(-c2cnn3c(=O)[nH]c(SCc4[nH]c(=O)[nH]c(=O)c4Cl)nc23)cc1`, for which the IC50 is 1.8 µM. Turning to `COc1ccc(-c2cnn3c(=O)[nH]c(SCc4[nH]c(=O)[nH]c(=O)c4Cl)nc23)cc1`, the IC50 stood at 21.3 µM. Same read-out and setting: under `CCOc1ccc(-c2cnn3c(=O)[nH]c(SCc4[nH]c(=O)[nH]c(=O)c4Cl)nc23)cc1` stands 12 µM. Turning to `O=c1[nH]c(CSc2nc3c(-c4ccc(I)cc4)cnn3c(=O)[nH]2)c(Cl)c(=O)[nH]1`, the IC50 is 0.61 µM. On the same count and under the same terms, under `O=c1[nH]c(CSc2nc3c(-c4ccc(S(F)(F)(F)(F)F)cc4)cnn3c(=O)[nH]2)c(Cl)c(=O)[nH]1` stands 0.36 µM; under `O=c1[nH]c(CSc2nc3cc(-c4ccc(C(F)(F)F)cc4)nn3c(=O)[nH]2)c(Cl)c(=O)[nH]1`, 2.1 µM; under `Cc1ccc(-c2cc3nc(SCc4[nH]c(=O)[nH]c(=O)c4Cl)[nH]c(=O)n3n2)cc1`, 9.8 µM. Still for that read-out and setting: under `CC(C)(C)c1ccc(-c2cc3nc(SCc4[nH]c(=O)[nH]c(=O)c4Cl)[nH]c(=O)n3n2)cc1` stands 1.5 µM.

Consider `COc1ccc(-c2cc3nc(SCc4[nH]c(=O)[nH]c(=O)c4Cl)[nH]c(=O)n3n2)cc1`, for which the IC50 was 11.8 µM. Take `CCOc1ccc(-c2cc3nc(SCc4[nH]c(=O)[nH]c(=O)c4Cl)[nH]c(=O)n3n2)cc1`: the IC50 amounted to 10 µM. On the same count and under the same terms, under `O=c1[nH]c(CSc2nc3cc(-c4ccccc4)nn3c(=O)[nH]2)c(Cl)c(=O)[nH]1` stands 13 µM; under `Cc1cnn2c(=O)[nH]c(SCc3[nH]c(=O)[nH]c(=O)c3Cl)nc12`, 35.3 µM; under `O=c1[nH]c(CSc2nc3c(Cl)cnn3c(=O)[nH]2)c(Cl)c(=O)[nH]1`, 49.8 µM. Still for that read-out and setting: under `O=c1[nH]c(CSc2nc3c(Br)cnn3c(=O)[nH]2)c(Cl)c(=O)[nH]1` stands 40 µM; under `O=c1[nH]c(CSc2nc3c(I)cnn3c(=O)[nH]2)c(Cl)c(=O)[nH]1`, 30.8 µM. Same read-out and setting: under `N#Cc1cnn2c(=O)[nH]c(SCc3[nH]c(=O)[nH]c(=O)c3Cl)nc12` stands 38.8 µM. For `CCOC(=O)c1cnn2c(=O)[nH]c(SCc3[nH]c(=O)[nH]c(=O)c3Cl)nc12`, the IC50 was 47.2 µM. Same read-out and setting: for `O=c1[nH]c(CSc2nc3c(-c4ccccc4)cnn3c(=O)[nH]2)c(Cl)c(=O)[nH]1` the value was 9.7 µM; for `O=c1[nH]c(CSc2nc3c(-c4ccc(F)cc4)cnn3c(=O)[nH]2)c(Cl)c(=O)[nH]1`, 8 µM. `O=c1[nH]c(CSc2nc3c(-c4ccc(Cl)cc4)cnn3c(=O)[nH]2)c(Cl)c(=O)[nH]1`: the IC50 stood at 2.8 µM. The same measure, in the same setting: for `O=c1[nH]c(CSc2nc3c(-c4ccc(Br)cc4)cnn3c(=O)[nH]2)c(Cl)c(=O)[nH]1` the value was 1.2 µM. The same measure, in the same setting: under `O=c1[nH]c(CSc2nc3c(-c4ccc(C(F)(F)F)cc4)cnn3c(=O)[nH]2)c(Cl)c(=O)[nH]1` stands 1.3 µM; under `Cc1ccc(-c2cnn3c(=O)[nH]c(SCc4[nH]c(=O)[nH]c(=O)c4Cl)nc23)cc1`, 7.3 µM.

In the case of `CCOc1ccc(-c2cc3[nH]c(=S)[nH]c(=O)n3n2)cc1`, the IC50 turned out to be 6.1 µM. Still for that read-out and setting: under `N#Cc1cnn2c(=O)[nH]c(=S)[nH]c12` stands above 100 µM; under `CCOC(=O)c1cnn2c(=O)[nH]c(=S)[nH]c12`, above 100 µM. Still for that read-out and setting: for `O=c1[nH]c(CSc2nc3ccnn3c(=O)[nH]2)c(Cl)c(=O)[nH]1` the value was 67.8 µM; for `Cc1cc2nc(SCc3[nH]c(=O)[nH]c(=O)c3Cl)[nH]c(=O)n2n1`, 55.5 µM. Same read-out and setting: for `CC(C)(C)c1cc2nc(SCc3[nH]c(=O)[nH]c(=O)c3Cl)[nH]c(=O)n2n1` the value was 51.2 µM. Regarding `O=c1[nH]c(CSc2nc3cc(C(F)(F)F)nn3c(=O)[nH]2)c(Cl)c(=O)[nH]1`, the IC50 worked out at 31 µM. Turning to `O=c1[nH]c(CSc2nc3cc(-c4ccc(F)cc4)nn3c(=O)[nH]2)c(Cl)c(=O)[nH]1`, the IC50 amounted to 22.6 µM.

For `O=c1[nH]c(CSc2nc3cc(-c4ccc(Cl)cc4)nn3c(=O)[nH]2)c(Cl)c(=O)[nH]1`, the IC50 was determined as 10.3 µM. Take `O=c1[nH]c(CSc2nc3cc(-c4ccc(Br)cc4)nn3c(=O)[nH]2)c(Cl)c(=O)[nH]1`: the IC50 was 6.2 µM. Same read-out and setting: under `N=C1CCCN1Cc1[nH]c(=O)[nH]c(=O)c1Cl` [TIPIRACIL HYDROCHLORIDE] stands 0.0027 µM.

Tested on in another series: not listed separately
In words: Cytotoxicity against human MDA-MB-231 cells assessed as cell viability at 100 uM by MTT assay relative to control. The series is classed as cell-based. As to conditions: read-out: Activity.
Turning to `O=c1[nH]c(CSc2nc3c(-c4ccc(S(F)(F)(F)(F)F)cc4)cnn3c(=O)[nH]2)c(Cl)c(=O)[nH]1`, the viability at 100 µM was determined as 67%.

A further series deals with T1, Thymidine phosphorylase. In words: Mixed-type inhibition of Escherichia coli recombinant thymidine phosphorylase using thymidine as substrate by Lineweaver-Burk plot analysis.
Settings: not given
A word on the Ki: it is a dissociation constant, usually derived from enzyme kinetics or from competition with a known ligand. Regarding `O=c1[nH]c(CSc2nc3c(-c4ccc(S(F)(F)(F)(F)F)cc4)cnn3c(=O)[nH]2)c(Cl)c(=O)[nH]1`, the Ki was 0.44 µM.
